# Results taken from ChEMBL document CHEMBL1201862, “PubChem BioAssay data set” (2004).
#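 Assay format: 96-well plates, 48-hour exposure. GI50 = concentration required for 50% inhibition of growth.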 Active and inactive are the calls of the source. Rule as the data show it: active = GI50 up to about 1.1 µM and inactive = higher.
# How the values were obtained:
# Test in all cases: NCI-60 cell line screen, 48 h
# [1] = test system: OVCAR-5
# [2] = test system: MDA-MB-435
# [3] = test system: A498
# [4] = test system: 786-0
# [5] = test system: MOLT-4
# [6] = test system: SF-295
# [7] = test system: OVCAR-8
# [8] = test system: SW-620
# [9] = test system: EKVX
# [10] = test system: SK-MEL-2
# [11] = test system: K562
# [12] = test system: T47D
# [13] = test system: SR
# [14] = test system: IGROV-1
# [15] = test system: NCI-H460
# [16] = test system: PC-3
# [17] = test system: NCI-H23
# [18] = test system: UO-31
# [19] = test system: SK-MEL-28
# [20] = test system: UACC-257
# [21] = test system: SNB-75
# [22] = test system: HOP-62
# [23] = test system: SN12C
# [24] = test system: SF-539
# [25] = test system: BT-549
# [26] = test system: OVCAR-4
# [27] = test system: LOX IMVI
# [28] = test system: Malme-3M
# [29] = test system: CCRF-CEM
# [30] = test system: OVCAR-3
# [31] = test system: HT-29
# [32] = test system: UACC-62
# [33] = test system: HCC 2998
# [34] = test system: SK-OV-3
# [35] = test system: U-251
# [36] = test system: NCI-H522
# [37] = test system: A549
# [38] = test system: RPMI-8226
# [39] = test system: CAKI-1
# [40] = test system: MCF7
# [41] = test system: HCT-116
# [42] = test system: NCI/ADR-RES
# [43] = test system: COLO 205
# [44] = test system: TK-10
# [45] = test system: M14
# [46] = test system: HL-60
# [47] = test system: NCI-H226
# [48] = test system: Hs-578T
# [49] = test system: ACHN
# [50] = test system: HOP-92
# [51] = test system: SNB-19
# [52] = test system: DU-145
# [53] = test system: HCT-15
# [54] = test system: MDA-MB-231
# [55] = test system: RXF 393
# [56] = test system: KM12
# [57] = test system: SK-MEL-5
# [58] = test system: SF-268
# [59] = test system: MDA-N
structure (smiles),measurement,setting,value
NS(=O)(=O)c1nn2c(Br)c(-c3ccccc3)nc2s1,GI50,[1],11.1 µM (inactive)
same,GI50,[2],4.45 µM (inactive)
same,GI50,[3],17 µM (inactive)
same,GI50,[4],2.45 µM (inactive)
same,GI50,[5],1.61 µM (inactive)
same,GI50,[6],8.97 µM (inactive)
same,GI50,[7],2.38 µM (inactive)
same,GI50,[8],3.62 µM (inactive)
same,GI50,[9],15.8 µM (inactive)
same,GI50,[10],4.52 µM (inactive)
same,GI50,[11],2.2 µM (inactive)
same,GI50,[12],3.66 µM (inactive)
same,GI50,[13],1.88 µM (inactive)
same,GI50,[14],10.4 µM (inactive)
same,GI50,[15],5.98 µM (inactive)
same,GI50,[16],6.03 µM (inactive)
same,GI50,[17],3.48 µM (inactive)
same,GI50,[18],4.02 µM (inactive)
same,GI50,[19],9.06 µM (inactive)
same,GI50,[20],5.16 µM (inactive)
same,GI50,[21],5.18 µM (inactive)
same,GI50,[22],14.9 µM (inactive)
same,GI50,[23],2.92 µM (inactive)
same,GI50,[24],1.96 µM (inactive)
same,GI50,[25],2.97 µM (inactive)
same,GI50,[26],10.6 µM (inactive)
same,GI50,[27],1.95 µM (inactive)
same,GI50,[28],3.96 µM (inactive)
same,GI50,[29],2.65 µM (inactive)
same,GI50,[30],4.49 µM (inactive)
same,GI50,[31],2.49 µM (inactive)
same,GI50,[32],4.23 µM (inactive)
same,GI50,[33],4.92 µM (inactive)
same,GI50,[34],14.7 µM (inactive)
same,GI50,[35],4.59 µM (inactive)
same,GI50,[36],1.61 µM (inactive)
same,GI50,[37],6.44 µM (inactive)
same,GI50,[38],2.39 µM (inactive)
same,GI50,[39],3.03 µM (inactive)
same,GI50,[40],3.95 µM (inactive)
same,GI50,[41],2.04 µM (inactive)
same,GI50,[42],3.84 µM (inactive)
same,GI50,[43],5.24 µM (inactive)
same,GI50,[44],6.37 µM (inactive)
same,GI50,[45],3.31 µM (inactive)
same,GI50,[46],3.66 µM (inactive)
same,GI50,[47],1.91 µM (inactive)
same,GI50,[48],9.48 µM (inactive)
same,GI50,[49],4.45 µM (inactive)
same,GI50,[50],8.77 µM (inactive)
same,GI50,[51],9.46 µM (inactive)
same,GI50,[52],3.08 µM (inactive)
same,GI50,[53],2.86 µM
same,GI50,[54],4.47 µM (inactive)
same,GI50,[55],0.847 µM (active)
same,GI50,[56],4.85 µM (inactive)
same,GI50,[57],2.42 µM (inactive)
same,GI50,[58],8.38 µM (inactive)
Cc1cc(C)nc(NC(=O)c2ccc(Br)s2)c1,GI50,[1],17.7 µM (inactive)
same,GI50,[2],79.1 µM (inactive)
same,GI50,[3],30.5 µM (inactive)
same,GI50,[4],> 100 µM (inactive)
same,GI50,[59],31.8 µM (inactive)
same,GI50,[5],> 100 µM (inactive)
same,GI50,[6],20.5 µM (inactive)
same,GI50,[7],> 100 µM (inactive)
same,GI50,[8],> 100 µM (inactive)
same,GI50,[9],76.7 µM (inactive)
same,GI50,[10],> 100 µM (inactive)
same,GI50,[11],> 100 µM (inactive)
same,GI50,[12],31.9 µM (inactive)
same,GI50,[13],> 100 µM (inactive)
same,GI50,[14],> 100 µM (inactive)
same,GI50,[15],> 100 µM (inactive)
same,GI50,[16],> 100 µM (inactive)
same,GI50,[17],77.6 µM (inactive)
same,GI50,[18],25.6 µM (inactive)
same,GI50,[19],> 100 µM (inactive)
same,GI50,[20],> 100 µM (inactive)
same,GI50,[21],47.8 µM (inactive)
same,GI50,[22],> 100 µM (inactive)
same,GI50,[23],> 100 µM (inactive)
same,GI50,[24],56.9 µM (inactive)
same,GI50,[25],> 100 µM (inactive)
same,GI50,[26],> 100 µM (inactive)
same,GI50,[27],35.3 µM (inactive)
same,GI50,[28],> 100 µM (inactive)
same,GI50,[29],3.37 µM (inactive)
same,GI50,[30],> 100 µM (inactive)
same,GI50,[31],> 100 µM (inactive)
same,GI50,[32],95.3 µM (inactive)
same,GI50,[33],> 100 µM (inactive)
same,GI50,[34],> 100 µM (inactive)
same,GI50,[35],> 100 µM (inactive)
same,GI50,[36],> 100 µM (inactive)
same,GI50,[37],48.4 µM (inactive)
same,GI50,[38],3.3 µM (inactive)
same,GI50,[39],> 100 µM (inactive)
same,GI50,[40],28 µM (inactive)
same,GI50,[41],10.7 µM (inactive)
same,GI50,[42],> 100 µM (inactive)
same,GI50,[43],10.6 µM (inactive)
same,GI50,[44],> 100 µM (inactive)
same,GI50,[45],21.3 µM (inactive)
same,GI50,[47],> 100 µM (inactive)
same,GI50,[49],> 100 µM (inactive)
same,GI50,[50],> 100 µM (inactive)
same,GI50,[51],> 100 µM (inactive)
same,GI50,[52],> 100 µM (inactive)
same,GI50,[53],94.8 µM
same,GI50,[54],21.7 µM (inactive)
same,GI50,[55],> 100 µM (inactive)
same,GI50,[56],> 100 µM (inactive)
same,GI50,[57],5.13 µM (inactive)
same,GI50,[58],> 100 µM (inactive)
CC(C)(C)Cc1cc(O)ccc1O,GI50,[1],> 100 µM (inactive)
same,GI50,[2],39.1 µM (inactive)
same,GI50,[3],> 100 µM (inactive)
same,GI50,[4],63.5 µM (inactive)
same,GI50,[59],43.2 µM (inactive)
same,GI50,[5],36.4 µM (inactive)
same,GI50,[6],44 µM (inactive)
same,GI50,[7],53 µM (inactive)
same,GI50,[8],61.9 µM (inactive)
same,GI50,[9],48.9 µM (inactive)
same,GI50,[11],48.3 µM (inactive)
same,GI50,[12],60.5 µM (inactive)
same,GI50,[13],24 µM (inactive)
same,GI50,[14],> 100 µM (inactive)
same,GI50,[15],63.4 µM (inactive)
same,GI50,[16],> 100 µM (inactive)
same,GI50,[17],77.3 µM (inactive)
same,GI50,[18],> 100 µM (inactive)
same,GI50,[19],> 100 µM (inactive)
same,GI50,[20],33.3 µM (inactive)
same,GI50,[21],58.9 µM (inactive)
same,GI50,[22],> 100 µM (inactive)
same,GI50,[23],51.3 µM (inactive)
same,GI50,[24],70.8 µM (inactive)
same,GI50,[25],93.3 µM (inactive)
same,GI50,[26],> 100 µM (inactive)
same,GI50,[27],60.3 µM (inactive)
same,GI50,[28],> 100 µM (inactive)
same,GI50,[29],26.5 µM (inactive)
same,GI50,[30],39.3 µM (inactive)
same,GI50,[31],> 100 µM (inactive)
same,GI50,[32],> 100 µM (inactive)
same,GI50,[33],51.9 µM (inactive)
same,GI50,[34],> 100 µM (inactive)
same,GI50,[35],43.5 µM (inactive)
same,GI50,[36],27 µM (inactive)
same,GI50,[37],58.9 µM (inactive)
same,GI50,[39],> 100 µM (inactive)
same,GI50,[40],74.8 µM (inactive)
same,GI50,[41],61.1 µM (inactive)
same,GI50,[42],35.6 µM (inactive)
same,GI50,[43],> 100 µM (inactive)
same,GI50,[44],> 100 µM (inactive)
same,GI50,[45],46.2 µM (inactive)
same,GI50,[46],6.73 µM (inactive)
same,GI50,[47],> 100 µM (inactive)
same,GI50,[49],86.1 µM (inactive)
same,GI50,[50],> 100 µM (inactive)
same,GI50,[51],49.9 µM (inactive)
same,GI50,[52],> 100 µM (inactive)
same,GI50,[53],34.7 µM
same,GI50,[54],42.2 µM (inactive)
same,GI50,[55],98.6 µM (inactive)
same,GI50,[56],64.9 µM (inactive)
same,GI50,[58],87.9 µM (inactive)
